Results on one sequence are retold here after patent US9745357B2, “Peptides used for treating cancers and, in particular, chronic lymphoid leukaemia” (Centre National de la Recherche Scientifique, priority 2009, dated 2017).

Like-named read-outs stand apart in the source and are kept apart here. No end group written: not given here.

The subject of experiment [1] is cells derived from a human colon cancer (HCT116). Type of experiment: cell-based. Particulars: 4 h, 40 μM. On the procedure:
(§1) FIG. 7: Activity of the A1WT peptide on cells of lymphocytic, lymphoid, gastric, colonic or renal origin The cells are prepared and placed in culture (see Materials and Methods) and then incubated for 4 H with the A1WT or A1 YALA peptide. The percentage cell survival corresponds to the percentage of cells labeled neither with annexin nor with propidium iodide, evaluated by flow cytometry. The names of the pathological conditions from which the patients from whom the samples are taken are suffering are indicated under the figure. The control T (L.T.) and B (L.B.) lymphocytes are taken from patients suffering from a disease not related to a lymphocytic pathological condition (hemochromatosis).
(§2) The cells were cultured in a culture medium composed either of RPMI 1640 (B lymphocytes) or of DMEM (COS7, HCT116, HGT1, 293, HeLa) containing 10% of FCS (fetal calf serum, 1% of penicillin-streptomycin and 1% of glutamine, Gibco BRL). The cells are distributed in a 24-well plate and cultured at 37° C. in a humid atmosphere under 5% CO2.
(§3) 400 μl of cell suspension (1×10^6 cells/ml) per well were treated for 4 h or 24 h with various concentrations of peptides. The test for activity of the peptides in the presence of emetine (FIG. 6) was carried out by preincubating the cells with 100 μM of emetine for one hour before the addition of peptide.
(§4) After the cells have been washed with PBS, they were analyzed using the Annexin V-FITC IP system according to the supplier's recommendations (Beckman Coulter).

Experiment [2] has as its system HGT1 cell line derived from a gastric cancer. Type of experiment: cell-based. The following applies: 4 h, 40 μM. On the procedure:
as §1, §2, §3, §4

Experiment [3] relates to cells derived from a simian kidney cancer (COS7). Format: cell-based. Particulars: 4 h, 40 μM. On the procedure:
as §1, §2, §3, §4

The subject of experiment [4] is Jok cells (cell line derived from B lymphocytes). In words: Cell survival of Jok cells, annexin/propidium iodide flow cytometry. Type of experiment: cell-based, human. On the procedure:
The cells are treated as indicated for FIG. 7, with the CLL cells, control T lymphocytes and Jok lymphocytes, which are incubated with the A1 WT IRS peptide and derivatives thereof described in table 1. The Jok cells were incubated either with 20 μM (JOK 20) or with 40 μM (JOK 40) of each of the peptides. In the interests of simplifying the legend, the A1 WT IRS peptide is referred to as “WT”. Likewise, the derivatives thereof are referred to by the name of the mutations (A1 K3I IRS is referred to as “K3I”, for example).
as §2, §3, §4
The peptides were tested on B lymphocytes from patients suffering from chronic lymphoid leukemia, control T lymphocytes, or Jok cells (cell line derived from B lymphocytes). The experiment was repeated three times for each type of cell tested.

Experiment [5] has as its system control T lymphocytes (patients suffering from hemochromatosis). Kind of experiment: Cell survival of control T lymphocytes, annexin/propidium iodide flow cytometry. Format: cell-based, human. The following applies: 40 μM, 4 hours; FIG. 9. (In general: In flow cytometry, cells or beads pass a laser one at a time.)
Experiment [6] relates to cap-dependent translation (eIF4E-dependent). In words: Effect of the peptides on translation of capped luciferase mRNA in rabbit reticulocyte lysate. Type of experiment: biochemical. Particulars: 50 μM peptide, compared with DMSO = 100%; FIG. 2. On the procedure: The peptides having the IRS motif and the sequences of 4EBPlike type (A1WT, BPSgWT, and BP2WT) or the mutant sequences of 4EPBlike type (A1YALA, BPSgYALA, BP2YALA) are incubated in rabbit reticulocyte lysate containing capped mRNAs encoding luciferase, an enzyme of which the activity can be easily assayed. The translational activity is directly proportional to the activity of the luciferase produced. The translational activity in the presence of peptide is compared with that obtained during the addition of an equivalent volume of DMSO, considered to be 100%.
The peptides were produced, purified by HPLC (purity>95%), and freeze-dried by Thermofisher Scientific. The peptides were then dissolved at 10 mM in DMSO.
The capped mRNAs encoding Renilla luciferase (Luc R) were produced by the T7 Message Machine Kit system (Ambion) from the pGb-Eg2-410Δ2-hxG-A65 plasmid linearized with EcoRV (Legagneux V, Omilli F, Osborne HB (1995) Substrate-specific regulation of RNA deadenylation in Xenopus embryo and activated egg extracts. RNA 1: 1001-1008).
The Luc R mRNAs were translated for one hour at 30° C. in rabbit reticulocyte lysate (Flexi Rabbit Reticulocyte Lysate System, Promega) in the presence of 50 μM of peptide. The luciferase activity was determined using the Renilla luciferase assay (Promega) on the Tristar LB941 luminometer (Berthold).
A capped mRNA (having a cap at the 5′ end) encoding luciferase, a protein which can be easily assayed by measuring its activity, was translated in the presence of these various peptides in rabbit reticulocyte lysate (FIG. 2). The luciferase activity measured is directly proportional to the amount of luciferase protein produced and therefore to the cap-dependent translational activity. Since the peptides are dissolved in DMSO, it was important to test the effect of DMSO on the translation. […] The translational activity in the presence of peptide was compared with that obtained when an equal volume of DMSO is added, considered to be equal to 100%.

Experiment [7] concerns B lymphocytes from patients suffering from chronic lymphoid leukemia (CLL). Particulars: for IC50: read-out: IC50 (concentration of peptide causing the death of 50% of the cells), after 24 H. On the procedure:
Peripheral blood B lymphocytes taken from patients suffering from CLL and then purified on a Ficoll cushion and placed in culture are incubated in the presence of […] of the peptides described for FIG. 2. The percentage cell survival after 4 hours (gray column) or 24 hours (white column) of culture corresponds to the percentage of cells labeled neither with annexin nor with propidium iodide, evaluated by flow cytometry.
The CLL B lymphocytes were obtained from peripheral blood of 18 different patients suffering from chronic lymphoid leukemia. […] The samples were taken in the Brest hospital center, in the hematology department. The blood samples were taken after informing the patients and obtaining their informed consent.
The lymphocytes, mononuclear cells, were isolated from the heparinized peripheral blood samples by Ficoll-Hypaque (LSM 1077 lymphocyte, euro-bio) centrifugation. The red blood cells were lyzed by incubation for 10 min in VersaLyse Lysing Solution (Beckman Coulter). The mononuclear cells are obtained after 2 washes in culture medium (RPMI1640, Gibco BRL).
as §2, §3, §4
The cells taken from patients suffering from chronic lymphoid leukemia were purified on a Ficoll cushion. […] The cells were placed in culture in RPMI medium in the presence of 10% FCS (fetal calf serum). The peptides were added directly to the culture medium. These peptides comprise the IRS sequence (the amino acid sequence of which is RYIRS) which is known to allow the penetration of peptides into B lymphocytes in culture (Dong et al., 2005). […] The cells which survive the treatment are those which are labeled neither with annexin nor with propidium iodide.

Where [8] appears, read: 40 μM peptide, 4 hours of culture, cells not labeled with annexin or propidium iodide.

For the sequence “RRKYGRDFLLRFRYIRS [A1 WT IRS, RRKYGRDFLLRFRYIRS]”, the cell survival is on record as 94% in experiment [1], “more than 88%” in experiment [2] and 90% in experiment [3]. Further, in experiment [4] (20 μM peptide, 4 hours of culture, cells not labeled with annexin or propidium iodide), the “cell effect Jok 20 (survival)” value is reported as “+ (+: survival <25%)”. Besides, in experiment [4] (setting [8]), the “cell effect Jok 40 (survival)” value is “+ (+: survival <25%)”. The “effect of the peptide on cell mortality, in words (relative to A1 WT IRS)” value in experiment [4] (40 μM, 4 hours, FIG. 9) is listed as “high cell mortality”; in experiment [5], “the survival rate is higher in the control T cells”; in experiment [7] (40 μM, 4 hours, FIG. 9) it was “high cell mortality”. Besides, the “inhibition of translation (luciferase activity)” value in experiment [6] is reported as “more substantially inhibits the translation”. For the same sequence, in experiment [7] (40 μM peptide after 1 h preincubation with 100 μM emetine, 4 H (from 97%), FIG. 6), the “cell survival, peptide in the presence of emetine” value stood at 27%. For the same sequence, in experiment [7] (setting [8]), the “cell effect CLL 40 (survival)” value was “+ (+: survival <25%)”. Also, the “change of the effect on survival over time” value in experiment [7] (40 μM, 1 H, 2 H, 4 H and 24 H, FIG. 4) was “no longer active after 4 H of incubation”. Besides, the “cell survival rate compared with cells incubated without peptide” value in experiment [7] (4 H of incubation with 20 μM of peptide, FIG. 8) was “less than 65%”. In addition, the IC50 in experiment [7] (batch of cells from a second patient) was 24 µM; in experiment [7] (first patient, FIG. 5), about 28 µM.
